Data reported in ChEMBL document CHEMBL5236632, “Membrane-Active Nonivamide Derivatives as Effective Broad-Spectrum Antimicrobials: Rational Design, Synthesis, and Biological Evaluation” (J Med Chem, 2022).
≈ marks a conversion by molar mass, not a printed value. Calls of active or inactive are those of the source. The rule behind the calls is not given here.

Experiments:
Acinetobacter baumannii = assay: Antibacterial activity against Acinetobacter baumannii R2889 assessed as inhibition of visible growth measured after 18 to 24 hrs by broth dilution method; type: functional; details: time 18-24 hrs
Escherichia coli [1] = assay: Antibacterial activity against Escherichia coli […] assessed as inhibition of visible growth measured after 18 to 24 hrs in presence of 3220 ug/ml Na+ by broth dilution method; type: functional; details: time 18-24 hrs
Escherichia coli [2] = assay: Antibacterial activity against Escherichia coli […] assessed as inhibition of visible growth measured after 18 to 24 hrs in presence of 24.3 ug/ml Mg2+ by broth dilution method; type: functional; details: time 18-24 hrs
Cell membrane = assay: Induction of membrane depolarization in Staphylococcus aureus ATCC 29213 assessed as increase in fluorescence intensity at 4 to 8 times MIC measured for 60 mins by DiSC3(5) dye based fluorescence method; type: subcellular
Escherichia coli [3] = assay: Antibacterial activity against Escherichia coli ATCC 25922 assessed as fold increase in MIC measured after 18 to 24 hrs in presence of 512 ug/ml LTA/LPS by broth dilution method; type: functional; details: time 18-24 hrs
Escherichia coli [4] = assay: Inhibition of biofilm formation Escherichia coli ATCC 25922 assessed as decrease in biofilm formation at 0.78 ug/ml measured after 24 hrs by crystal violet staining assay; type: functional
Staphylococcus aureus = assay: Eradication of biofilm in Staphylococcus aureus ATCC 29213 assessed as biofilm viability at 0.39 ug/ml measured after 24 hrs by crystal violet staining assay; type: functional; details: dose 0.39 µg/ml
Escherichia coli [5] = assay: Eradication of biofilm in Escherichia coli ATCC 25922 assessed as biofilm viability at […] ug/ml measured after 24 hrs by crystal violet staining assay; type: functional; details: dose […] microg/ml, 1.56 ug/mL
Escherichia coli [6] = assay: Eradication of biofilm in Escherichia coli ATCC 25922 assessed as biofilm viability at 3.13 ug/ml measured after 24 hrs by crystal violet staining assay; type: functional; details: dose 3.13 µg/ml

Structure (SMILES): CCCCCCCCC(=O)NCc1ccc(OCCCCCCNC(=N)N)c(OCCCCCCNC(=N)N)c1
- MIC (Acinetobacter baumannii): 6.25 µg/mL (≈ 11.1 µM)
- MIC (Escherichia coli [1]): 1.56 µg/mL
- MIC (Escherichia coli [2]): 1.56 µg/mL
- Activity (Cell membrane): Active
- fold change (FC) (Escherichia coli [3]): 16
- inhibition at 0.78 µg/mL (Escherichia coli [4]): 88.9%
- Activity (Staphylococcus aureus): 73.22%
- Activity (Escherichia coli [5]): 93.71%
- Activity (Escherichia coli [6]): 38.07%
